Reference: ChEMBL document CHEMBL1156829 (Proc Natl Acad Sci U S A, 2008)

Columns and labels:
[1] = NOVARTIS: Cytotoxicity against human hepatocellular carcinoma cell line (Huh7); assay type: toxicity, cell-based, Huh-7; settings: Huh7 cells (hepatocellular carcinoma cell line)
[2] = tested on: Plasmodium falciparum; experiment: NOVARTIS: Inhibition of Plasmodium falciparum 3D7 (drug-susceptible) proliferation in erythrocyte-based infection assay; assay type: functional, organism-based; settings: Plasmodium falciparum, 3D7
[3] = tested on: Plasmodium falciparum; experiment: NOVARTIS: Inhibition of Plasmodium falciparum W2 (drug-resistant) proliferation in erythrocyte-based infection assay; assay type: functional, organism-based; settings: Plasmodium falciparum, W2; read-out: EC50

Row | Compound | CC50 [1] [nM] | EC50 [2] [nM] | EC50 [3] [nM]
1 | N=C(N)NN=Cc1cccc(OCc2ccc(Cl)c(Cl)c2)c1 | > 10000 | 1990 | 1690
2 | Cc1ccc2nc(Nc3nc(O)c4ccccc4n3)nc(C)c2c1 | > 10000 | 575 | > 1620
3 | COc1ccc(N=C2NC(=O)/C(=C\c3ccc(N(C)C)cc3)S2)cc1 | > 10000 | 1020 | > 1680
4 | CSc1ccc(Cl)c(Cl)c1 | 2350 | 83.9 | 398
5 | COc1cc(Nc2nccn3c(-c4ccsc4)cnc23)cc(OC)c1OC | > 10000 | > 1250 | 1650
6 | Cc1ccc(S(=O)(=O)NC(Cc2ccccc2)C(=O)N2CCC(C3CCN(C(=O)c4ccc([N+](=O)[O-])o4)CC3)CC2)cc1 (stereo not given) | > 10000 | 1910 | > 1680
7 | CCCCC(=O)Nc1ccccc1-c1nnn(CC(=O)Nc2ccc3c(c2)OCCO3)n1 | > 10000 | > 1140 | > 1670
8 | N#CC1=C(N)Oc2c(c(=O)oc3ccccc23)C1c1ccoc1 (stereo not given) | > 10000 | > 1160 | > 1660
9 | CCCN1CCN(C(=O)CCNC(=O)Cn2cnc3ccccc3c2=O)CC1 | > 10000 | > 1250 | 1590
10 | O=C1NN=C(CC(=O)N2CC[C@@H](c3ccccc3)[C@H](O)C2)C2C=CC=CC12 (stereo not given in full) | > 10000 | > 853 | > 1590
11 | CC1CCN(C(=O)CSc2nc(NCc3ccccc3)c3ccccc3n2)CC1 | > 10000 | 673 | > 1580
12 | Cc1cccc(OCC(=O)NCCNC2=NS(=O)(=O)c3ccccc32)c1 | > 10000 | > 1120 | 1680
13 | CCOC(=O)c1c(NC(=O)CSc2nnc(CNC(=O)c3cccc(OC)c3)n2C2CCCCC2)sc2c1CCCC2 | > 10000 | > 295 | > 1670
14 | CNc1nc(Cl)nc(Nc2ccccc2)n1 | > 10000 | > 482 | 1650
15 | Cc1ccc(Nc2nc3c(N)nnc(N)c3nc2Nc2ccc(C)cc2)cc1 | 13300 | 6120 | 2210
16 | CCOC(=O)N1CCN(C(=O)c2cnc3ccc(C)cn3c2=O)CC1 | > 10000 | > 355 | > 1660
17 | CCOC(=O)c1[nH]c(C)c(CNc2cccc(F)c2)c1C | > 10000 | 1060 | 1660
18 | COC(=O)C1=C(C)Nc2[nH]c(=S)[nH]c(=O)c2C1c1ccccc1F (stereo not given) | > 10000 | 1280 | > 1650
19 | COc1cccc(CN2CCC(O)(c3ccc4oc(C(=O)Nc5ccc(Cl)cc5)cc4c3)CC2)c1 | 24700 | 2160 | 4060
20 | O=c1c2ccccc2nc(/C=C/c2ccc([N+](=O)[O-])o2)n1-c1ccc(Br)cc1 | > 10000 | 902 | > 1640
21 | CN(C)c1ccc(N/C=C/C(=O)C(C)(C)C)cc1 | > 10000 | 1450 | 1580
22 | Cc1ccc(Nc2nc3nonc3nc2N(C)C)cc1Cl | > 10000 | > 1460 | 1610
23 | COC(C(=NO)c1ccc(Cl)cc1)c1ccccc1 (stereo not given) | > 10000 | > 912 | > 1610
24 | COc1ccc(-c2cnc3ccc(NC4CCOCC4)nn23)cc1OC | > 10000 | > 933 | > 1620
25 | CC(C)CNC(=O)c1cnc(NCCCn2ccnc2)nc1NCC(C)C | > 10000 | 768 | 1610
26 | COc1cc(NC(C)CCCN(Cc2ccc(F)cc2)C(=O)Nc2ccc(Br)cc2)c2ncccc2c1 (stereo not given) | 4240 | 927 | 691
27 | CCCCNC(=O)c1ccc2c(c1)N=C(CC(C)c1ccccc1)N(C1CCCCC1)C2 (stereo not given) | 48700 | 1450 | 8210
28 | COc1ccc(C2N=C(N)N=C(N)N2c2ccc(C)cc2)cc1 (stereo not given) | > 10000 | 73.8 | > 1640

Row | Compound | CC50 [1] [nM] | EC50 [2] [nM] | EC50 [3] [nM]
29 | CCOCCCN(C(=O)C(F)(F)F)C(C(=O)NC1CCCCC1)c1ccncc1 (stereo not given) | > 10000 | 1870 | > 1620
30 | COc1ccccc1C(=O)NNC(=O)c1ccccn1 | 8700 | 1710 | 1380
31 | COc1ccc(C(=O)/C(C#N)=C/NC2CCN(Cc3ccccc3)CC2)cc1 | > 10000 | 256 | > 1580
32 | Cc1ccc2nc(-c3ccccc3)cc(C(=O)Nc3ccc(Cl)c(Cl)c3)c2c1 | > 10000 | > 1250 | 1700
33 | N#Cc1c(NC(=O)CCl)c(C(=O)c2ccccc2)n2c1CCC2 | > 74200 | 298 | > 12500
34 | COc1cc(/C=C(\C#N)c2nc3ccccc3[nH]2)ccc1OCc1ccccc1Cl | > 10000 | > 1250 | 1670
35 | CCC(c1ccc(F)cc1)n1cc(C(=O)NCCCN2CCC(C)CC2)nn1 (stereo not given) | > 10000 | > 651 | > 1640
36 | C=CCNC(=O)CSc1ccc(C(=O)Nc2ccc(Cl)cc2F)cc1[N+](=O)[O-] | > 10000 | > 1170 | > 1630
37 | N#C/C(=C\NC1CCN(Cc2ccccc2)CC1)C(=O)c1cccs1 | > 10000 | 220 | 1620
38 | O=C(c1ccncc1)N1N=C(C(F)(F)F)CC1(O)c1cccc([N+](=O)[O-])c1 (stereo not given) | > 10000 | > 1220 | > 1680
39 | Cc1cc(Nc2ccc(Br)cc2)nc2ccccc12 | > 10000 | > 1250 | 1690
40 | O=C(Cn1c2ccccc2c(=O)c2cc(Cl)ccc21)Nc1cccc(C(F)(F)F)c1 | > 10000 | > 1360 | 1650
41 | CC[n+]1c(/C=C(C)/C=C2\Sc3ccccc3N2CCO)sc2ccccc21 | > 10000 | > 1250 | 1640
42 | FC(F)(F)c1cccc(Nc2nc3nonc3nc2Nc2ccc(Cl)cc2)c1 | > 10000 | > 1310 | 1610
43 | COC(=O)C1=C(OC)C(=O)OC12C=CC(=O)C=C2 | 2520 | 2220 | 423
44 | CC1CC(C)CN(c2ccc([N+](=O)[O-])cc2-c2nnn[nH]2)C1 (stereo not given) | > 10000 | > 831 | > 1610
45 | Cc1ccc(N2C(=O)CC(NCCCN3CCOCC3)C2=O)cc1 (stereo not given) | > 10000 | > 1290 | 1610
46 | O=C(Nc1ccc(C(c2ccccc2)(c2ccccc2)c2ccc(NC(=O)c3cccc([N+](=O)[O-])c3)cc2)cc1)c1cccc([N+](=O)[O-])c1 | > 10000 | > 1250 | 1680
47 | CC(C)c1ccc(C=NNC(=O)c2ccccc2O)cc1 | > 10000 | > 1250 | 1680
48 | O=c1nc(/C=C/c2ccc(Cl)cc2)oc2ccccc12 | > 10000 | 1850 | > 1660
49 | O=C(Cn1c(=O)oc2cc(Cl)ccc21)c1ccccc1 | 28400 | > 12500 | 4500
50 | Cc1nnc2sc(SCc3ccc([N+](=O)[O-])cc3)nn2c1=O | > 10000 | > 481 | > 1640
51 | CN(C)CCNc1cc(-c2cccc(C(F)(F)F)c2)nc(-c2ccncc2)n1 | > 10000 | > 1250 | 1680
52 | CC1=C(C(=O)OCCC(C)C)C(c2ccccc2)C(C(=O)OCCC(C)C)=C(C)N1 | > 10000 | > 918 | > 1630
53 | COc1ccc(C(NC(=O)COc2ccccc2)c2cc(Cl)c3cccnc3c2O)cc1OC (stereo not given) | 18500 | 4660 | 3080
54 | COc1ccc(-c2cc(C(=O)NCc3cccnc3)no2)cc1OC | > 10000 | > 1290 | 1700
55 | COc1ccc(C2C(C(=O)NCCN(C)C)c3ccccc3C(=O)N2C2CCCCC2)cc1 (stereo not given) | > 10000 | > 427 | 1610
